# Columns and labels:
# Sprague-Dawley rats [1] = assay: Changes in relevant physiological variables during treatment after severe CHI in rats; type: in vivo, rat; conditions: median average change over entire treatment period, % change of initial value; 0.5 mg/kg/min 10 min then 0.1 mg/kg/min 50 min, started 20 min after severe CHI; n = 10
# Description: A clinically relevant rat model for traumatic brain injury was used to test the compounds according to the invention. This model mimics several clinical features of traumatic brain injury, such as increased ICP, decreased cerebral perfusion pressure, morphologic alterations including diffuse axonal injury, neuronal necrosis and contusion, impairment of autoregulation of cerebral blood flow and reduction of brain oxygenation and was applied for screening drugs with ICP-lowering effects. Trauma was induced in intubated, isoflurane anesthetized (1.5% isoflurane in a mixture of 30% O2 and 70% N2O) Sprague-Dawley rats (380-400 g) stereotaxically positioned on a table mounted on 4 springs. A 400 g steel cylinder, protected with a 9 mm diameter silicon disc, was dropped on the unprotected skull from a height of either 70 cm or 50 cm (respectively ‘severe’ and ‘moderate’ head injury). The impact area was centered between bregma and lamda. ICP was recorded using a Codman microsensor probe inserted in the parietal cortex. In both severe and moderate head injuries the ICP increased immediately after trauma and remained elevated for several days. The severe head injury mode was used for the evaluation of pharmacological effects immediately after trauma (screening procedure). When survival and recovery from anesthesia was envisaged, the moderate head injury mode was applied. In pharmacological studies, animals with a pathological ICP between 12.5 and 35 mm Hg were included. The changes in ICP, mean arterial blood pressure (MABP) and cerebral perfusion pressure CPP (=[…]) were expressed as percentage of the initial value at onset of the treatment. Screening procedure: On a weekly base, 4 treated groups of 3 rats were compared with 3 saline treated animals. Since conventional statistical methods require a larger amount of animals, a sequential procedure was used. Sequential methods operate in different stages. At each stage, a group of animals was selected as homogeneous as possible. Animals were randomly allocated to either drugs or saline. The procedure allowed to make the decision of rejecting the drug, accepting the drug as active or to continue with a new group of animals in a next stage. Given the biological relevant level of activity that must be detected, the expected fraction of false positive and negative results was known and fixed. A sequential two-sample grouped rank test was used. […] Despite the variability in the individual data, the procedure consistently accepted reference treatments such as mannitol as active, while controls were rejected.
# Treatment was started at 20 min after severe head injury and involved administering a dose of 0.5 mg/kg/min during 10 minutes, followed by 0.1 mg/kg/min during 50 min.
# Sprague-Dawley rats [2] = assay: Dose response of a 10 min infusion in the rat CHI model; type: in vivo
# Description: A clinically relevant rat model for traumatic brain injury was used to test the compounds according to the invention. This model mimics several clinical features of traumatic brain injury, such as increased ICP, decreased cerebral perfusion pressure, morphologic alterations including diffuse axonal injury, neuronal necrosis and contusion, impairment of autoregulation of cerebral blood flow and reduction of brain oxygenation and was applied for screening drugs with ICP-lowering effects. Trauma was induced in intubated, isoflurane anesthetized (1.5% isoflurane in a mixture of 30% O2 and 70% N2O) Sprague-Dawley rats (380-400 g) stereotaxically positioned on a table mounted on 4 springs. A 400 g steel cylinder, protected with a 9 mm diameter silicon disc, was dropped on the unprotected skull from a height of either 70 cm or 50 cm (respectively ‘severe’ and ‘moderate’ head injury). The impact area was centered between bregma and lamda. ICP was recorded using a Codman microsensor probe inserted in the parietal cortex. In both severe and moderate head injuries the ICP increased immediately after trauma and remained elevated for several days. The severe head injury mode was used for the evaluation of pharmacological effects immediately after trauma (screening procedure). When survival and recovery from anesthesia was envisaged, the moderate head injury mode was applied. In pharmacological studies, animals with a pathological ICP between 12.5 and 35 mm Hg were included. The changes in ICP, mean arterial blood pressure (MABP) and cerebral perfusion pressure CPP (=[…]) were expressed as percentage of the initial value at onset of the treatment. Screening procedure: On a weekly base, 4 treated groups of 3 rats were compared with 3 saline treated animals. Since conventional statistical methods require a larger amount of animals, a sequential procedure was used. Sequential methods operate in different stages. […] Given the biological relevant level of activity that must be detected, the expected fraction of false positive and negative results was known and fixed. […]
# rat brain = assay: Near-infrared spectroscopy (NIRS) of the rat brain: brain hemoglobin concentration and oxygenation after moderate head injury; type: in vivo; conditions: 24 h after moderate head injury; i.v. 0.5 mg/kg.min 10 min then 0.1 mg/kg.min 45 min
# Description: Near-infrared spectroscopy (NIRS) of the rat brain ‘in vivo’ allows to quantify non-invasively saturation of brain haemoglobin with oxygen (HbSat) and total brain haemoglobin concentration ([HbTot]). The latter is a measure for cerebral blood volume (CBV). Changes in the redox state of the mitochondrial enzyme cytochrome oxidase (CytOx), an indicator for tissue oxygenation, can also be monitored.
# HbSat is not affected by compound 1 and the racemate (Comp. 1 and Comp. 2).
# traumatized rats = assay: Repeated application on elevated ICP in traumatized rats; type: in vivo, rat; conditions: i.v. 1 mg/kg/min during 10 min, repeated, FIG. 3
# Procedure: Compound 1 was given 2 times with intermittent periods of 20 min at a i.v. dose of 1 mg/kg/min during 10 min, starting a first time 20 min after induction of severe head injury.
# Mannitol was given i.v. in the same time windows as Compound 1 at a dose of 0.125 g/kg/min. The control animals received the solvent (containing 10% HP-β-CD, pH 4) only.
# This effect is amplified after termination of each, infusion period.
# rabbits = assay: Cold lesion-induced rise of ICP in rabbits; type: in vivo, rabbit; conditions: rabbits one day after cryo-lesion
# Procedure: Cryo-lesions were induced in adult rabbits to obtain a pathological ICP that is caused by tissue oedema. A 8 mm stainless steel rod was placed at predetermined coordinates on the exposed skull of deeply anaesthetised rabbits and cooled for […] with liquid nitrogen. One day later the animals were re-anaesthetised and ICP and blood pressure continuously recorded as described for the rat. After a stabilisation period of 15 min, Compound 1 was infused for 10 min at a dose of 2 mg/kg/min. Solvent (preclinical formulation containing 10% HP-β-CD, pH 4) was given for 10 min at a rate of […].
# non-traumatised rats = assay: ICP, MABP and CPP in anaesthetised non-traumatised rats; type: in vivo, rat; conditions: i.v. 0.5 mg/kg/min during 10 minutes, followed by 0.1 mg/kg/min during 50 min
# Procedure: The effect of Compound 2, Compound 1 and Racemate (comp. 1 and comp. 2) on ICP, MABP and CPP was tested in anaesthetised non-traumatised rats. The compounds were administered i.v. and the same dose was given as in traumatized rats (0.5 mg/kg/min during 10 minutes, followed by 0.1 mg/kg/min during 50 min).
# Rhesus monkeys = assay: ICP in anaesthetised non-traumatised Rhesus monkeys; type: in vivo, Rhesus monkey; conditions: i.v. infusion 2.5 and 5 mg/kg over 2.5 and 5 min (n=2/condition)
# Procedure: The effect of Compound 1 on ICP was tested in a limited number of anaesthetised non-traumatised Rhesus monkeys with a i.v. infusion of a dose of 2.5 and 5 mg/kg over 2.5 and 5 min respectively (n=2/condition).
structure (smiles),measurement,setting,value
"Cc1nc2n(C)c3ccccc3n2c(=O)c1CCN1CCC(C2c3ccccc3CCn3c2nc2ccccc23)CC1Cc1ccccc1 (single isomer, unassigned) [Compound 1, (B)[(2α,4β)(A)]3-[2-(4-(11,12-dihydro-6H-benzimidazo [2,1-b][3]benzazepin-6-yl)-2-(phenylmethyl)-1-piperidinyl]ethyl]-2,10-dimethyl-pyrimido[1,2-a]benzimidazol-4(10H)-one (E)-2-butenedioate (2:3) hydrate (1:1)]",CPP (%),Sprague-Dawley rats [1],−1.9%
same,ETCO2 (%),Sprague-Dawley rats [1],2.2%
same,Heart rate(%),Sprague-Dawley rats [1],−4.1%
same,ICP (%),Sprague-Dawley rats [1],−15.4%
same,MABP (%),Sprague-Dawley rats [1],−3.6%
same,Resp. rate(%),Sprague-Dawley rats [1],5.3%
same,dose starting at which reduction in ICP is statistically significantly larger than in the solvent-treated group,Sprague-Dawley rats [2]; 10 min infusion,≥ 1 mg/kg/min
same,effect on ICP during treatment,"Sprague-Dawley rats [2]; 10 min infusion at 0.125, 0.25, 0.5, 1 and 2 mg/kg/min, FIG. 1",sustained dose-dependent decrease of ICP
same,effect on ICP in the 10 min period following the infusion,"Sprague-Dawley rats [2]; after 10 min infusion at 0.125-2 mg/kg/min, FIG. 2",highly significant dose-dependent effect on ICP remains present
same,effect on saturation of brain haemoglobin with oxygen (HbSat),rat brain,not affected
same,effect on total brain haemoglobin concentration [HbTot],rat brain,do not have a significant effect
same,effect on ICP during infusion,traumatized rats; first 20 min after severe head injury,rapid reduction of ICP
same,effect on ICP after termination of each infusion period,traumatized rats,amplified
same,effect on blood pressure,traumatized rats,drops during Compound 1 treatment but is restored again after this episode
same,blood pressure during infusion,rabbits; 2 mg/kg/min for 10 min,drops
same,effect on ICP during infusion,"rabbits; 2 mg/kg/min for 10 min, FIG. 4",no immediate decrease in ICP
same,blood pressure when drug infusion is terminated,rabbits; after 2 mg/kg/min for 10 min,comes back to the initial value
same,effect on ICP when drug infusion is terminated,"rabbits; after 2 mg/kg/min for 10 min, persists during entire recording period",significant ICP reduction
same,"effect on ICP, MABP and CPP",non-traumatised rats,comparable with those obtained in the traumatized animals
same,pattern of ICP and blood pressure changes during and after infusion,Rhesus monkeys,resembles the pattern of changes observed in cryo-lesioned rabbits
